This note sets out measurements from ChEMBL document CHEMBL1142119, “Cytotoxic alkylpiperidine alkaloids from the Brazilian marine sponge Pachychalina alcaloidifera” (J Nat Prod, 2007).

Type in all cases: cell-based
The subject of series [1] is HL-60. Briefly: Cytotoxicity against human HL60 cells by MTT assay. In general terms: Formazan colour is commonly taken as a measure of viable cells.
Series [2] has as its system SF-295. Briefly: Cytotoxicity against human SF295 cells by MTT assay.
A short description of series [3]: Cytotoxicity against human MDA-MB435 cells by MTT assay. Particulars: mda-mb-435.
Series [4] has as its system HCT-8. Briefly: Cytotoxicity against human HCT8 cells by MTT assay.

As for `C1=C\CCCCC[C@H]2CN3CC/C=C\CCCCCC[C@@H]4C[C@@H](CN(CC/C=C\C/1)C4)[C@H]2CC3` [HALICLONACYCLAMINE F], the Activity in series [1] was 2.2 µg/mL; in series [2], 4.5 µg/mL; in series [3] it was 1 µg/mL; in series [4], 8.6 µg/mL.

As for `O[C@H]1/C2=C\C/C=C/C=C\C=C/CCN3CC45CCCCCCCCCCCCN(CC1C4CC23)C5` (stereo partly specified) [MADANGAMINE F], the Activity was 16.7 µg/mL in series [1], 19.8 µg/mL in series [2], 16.2 µg/mL in series [3] and greater than 25 µg/mL in series [4].

With `OC1\C=C/C=C/C=C/CC[C@H]2CN3CCCCCCCCCCCC[C@H]4C[C@H](CN(C1)C4)[C@@H]2CC3` (stereo partly specified), the Activity is 6.9 µg/mL in series [1], 8.7 µg/mL in series [2], 3.1 µg/mL in series [3] and greater than 25 µg/mL in series [4].

`OC1/C=C\C=C/CCCCCC[C@H]2CN3CC/C=C\CCCCCCC4C[C@@H](CN(C1)C4)[C@H]2CC3` (stereo partly specified) [ARENOSCLERIN D]: the Activity in series [1] was found to be 2.1 µg/mL; in series [2], 5.9 µg/mL; in series [3], 1.2 µg/mL; in series [4], 6.2 µg/mL.
